Laboratory results taken from US20050272750A1, “Novel compound” (AstraZeneca AB, priority 2002, published 2005).

How the values were obtained:
[1] = molecular target: T1, hrCXCR2 (Homo sapiens, UniProt P25025); experiment: Ligand binding assay ([125I]IL-8 displacement, HEK 293 membranes); conditions: [125I]IL-8 binding to membranes of HEK 293 cells expressing hrCXCR2; 1.5 hours at room temperature
T1 construct: expressed in transfected cells; host or cells: HEK 293 cells (ECACC No. 85120602), membranes of the highest expressing clone
T1 sequence (P25025 1-360): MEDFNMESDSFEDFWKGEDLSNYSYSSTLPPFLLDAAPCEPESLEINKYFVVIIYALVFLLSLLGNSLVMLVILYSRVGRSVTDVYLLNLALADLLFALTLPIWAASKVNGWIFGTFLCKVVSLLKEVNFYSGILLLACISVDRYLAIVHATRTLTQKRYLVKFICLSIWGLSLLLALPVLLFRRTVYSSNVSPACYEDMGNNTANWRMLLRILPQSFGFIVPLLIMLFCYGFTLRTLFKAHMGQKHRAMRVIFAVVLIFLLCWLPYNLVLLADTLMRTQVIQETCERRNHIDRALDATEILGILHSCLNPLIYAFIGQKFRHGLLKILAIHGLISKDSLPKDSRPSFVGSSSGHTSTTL
Excerpt: [^125I]IL-8 (human, recombinant) was purchased from Amersham, U.K. with a specific activity of 2,000 Ci/mmol. All other chemicals were of analytical grade. High levels of hrCXCR2 were expressed in HEK 293 cells (human embryo kidney 293 cells ECACC No. 85120602) (Lee et al. (1992) J. Biol. Chem. 267 pp 16283-16291). hrCXCR2 cDNA was amplified and cloned from human neutrophil mRNA. The DNA was cloned into PCRScript (Stratagene) and clones were identified using DNA. The coding sequence was sub-cloned into the eukaryotic expression vector RcCMV (Invitrogen). Plasmid DNA was prepared using Quiagen Megaprep 2500 and transfected into HEK 293 cells using Lipofectamine reagent (Ginbco BRL). Cells of the highest expressing clone were harvested in phosphate-buffered saline containing 0.2% (w/v) ethylenediaminetetraacetic acid (EDTA) and centrifuged (200 g, 5 min.). The cell pellet was resuspended in ice cold homogenisation buffer [[…] HEPES (pH 7.4), 1 mM dithiothreitol 1 mM EDTA and a panel of protease inhibitors (1 mM phenyl methyl sulphonyl fluoride, 2 μg/ml soybean trypsin inhibitor, 3 mM benzamidine, 0.5 μg/ml leupeptin and 100 μg/ml bacitracin)] and the cells left to swell for 10 minutes. […] The backing plate was removed from the MultiScreen plate assembly, the filters dried at room temperature, punched out and then counted on a Cobra γ-counter.

[2] = molecular target: T2, CXCR2 receptor in human neutrophils (Homo sapiens, UniProt P25025); experiment: Intracellular calcium mobilisation assay (GROα-stimulated, fluo-3, FLIPR); assay type: cell-based; conditions: A50 concentration of GROα, fluo-3 fluorescence
T2 construct: Human neutrophils were prepared from EDTA-treated peripheral blood; endogenous in cells; host or cells: human neutrophils from peripheral blood
T2 sequence (P25025 1-360): T1 sequence (P25025 1-360)
Method: Intracellular Calcium Mobilisation Assay
Human neutrophils were prepared from EDTA-treated peripheral blood, as previously described (Baly et al. (1997) Methods in Enzymology 287 pp70-72), in storage buffer [Tyrode's salt solution (137 mM NaCl 2.7 mM KCl, 0.4 mM NaH2PO4) supplemented with 5.7 mM glucose and 10 mM HEPES (pH 7.4)].
The chemokine GROα (human, recombinant) was purchased from R&D Systems (Abingdon, U.K.). All other chemicals were of analytical grade. Changes in intracellular free calcium were measured fluorometrically by loading neutrophils with the calcium sensitive fluorescent dye, fluo-3, as described previously (Merritt et al. (1990) Biochem. J. 269, pp513-519). Cells were loaded for 1 hour at 37° C. in loading buffer (storage buffer with 0.1% (w/v) gelatin) containing 5 μM fluo-3 AM ester, washed with loading buffer and then resuspended in Tyrode's salt solution supplemented with 5.7 mM glucose, 0.1% (w/v) bovine serum albumin (BSA), 1.8 mM CaCl2 and 1 mM MgCl2. […]
A compound of formula (1) according to the Examples was pre-dissolved in DMSO and added to a final concentration of 0.1% (v/v) DMSO. Assays were initiated by the addition of an A50 concentration of GROα and the transient increase in fluo-3 fluorescence (λEx=490 nm and λEm=520 nm) monitored using a FLIPR (Fluorometric Imaging Plate Reader, Molecular Devices, Sunnyvale, U.S.A).

IC50 [1]: < 10 µM
antagonism of the CXCR2 receptor (GROα-induced intracellular calcium increase) [2]: antagonist
melting point: 202 to 204 °C
Compound: C[C@H](O)[C@H](CO)Nc1nc(SCc2cccc(F)c2F)nc2[nH]c(=O)sc12 [compound of formula (I), 5-[((2,3-difluorophenyl)methyl)thio]-7-{[(1S,2S)-2-hydroxy-1-(hydroxymethyl)propyl]amino}thiazolo[4,5-d]pyrimidin-2(3B)-one]
